Test [1] addresses T1, human wildtype CFTR (Homo sapiens, UniProt P13569). Briefly: Short-circuit current (Isc) in FRT cells expressing human wild-type CFTR.
The target of test [2] is T1, human wildtype CFTR. Briefly: Fluorescence plate reader assay of iodide influx in FRT cells co-expressing CFTR and YFP halide sensor.
Test [3] has as its system tear fluid secretion. Format: in vivo, mouse.
Test [4] relates to loperamide-treated mice. As to the kind of experiment: Loperamide-induced mouse model of constipation. As to conditions: loperamide-treated wildtype mice.
Where [5] appears, read: read-out: EC50, variation in the N1-substituent, plate reader assay.
[6] abbreviates: read-out: EC50, variation in the 3-aryl ring, plate reader assay.
Setting [7] is: read-out: EC50, variation in the quinoxalinone core, plate reader assay.

pEC50: −log10 of the molar value. Where two headings read alike, the source gives them in different places. Where only a bound is given, the exact number is not on record here.

T1 sequence (P13569 whole entry): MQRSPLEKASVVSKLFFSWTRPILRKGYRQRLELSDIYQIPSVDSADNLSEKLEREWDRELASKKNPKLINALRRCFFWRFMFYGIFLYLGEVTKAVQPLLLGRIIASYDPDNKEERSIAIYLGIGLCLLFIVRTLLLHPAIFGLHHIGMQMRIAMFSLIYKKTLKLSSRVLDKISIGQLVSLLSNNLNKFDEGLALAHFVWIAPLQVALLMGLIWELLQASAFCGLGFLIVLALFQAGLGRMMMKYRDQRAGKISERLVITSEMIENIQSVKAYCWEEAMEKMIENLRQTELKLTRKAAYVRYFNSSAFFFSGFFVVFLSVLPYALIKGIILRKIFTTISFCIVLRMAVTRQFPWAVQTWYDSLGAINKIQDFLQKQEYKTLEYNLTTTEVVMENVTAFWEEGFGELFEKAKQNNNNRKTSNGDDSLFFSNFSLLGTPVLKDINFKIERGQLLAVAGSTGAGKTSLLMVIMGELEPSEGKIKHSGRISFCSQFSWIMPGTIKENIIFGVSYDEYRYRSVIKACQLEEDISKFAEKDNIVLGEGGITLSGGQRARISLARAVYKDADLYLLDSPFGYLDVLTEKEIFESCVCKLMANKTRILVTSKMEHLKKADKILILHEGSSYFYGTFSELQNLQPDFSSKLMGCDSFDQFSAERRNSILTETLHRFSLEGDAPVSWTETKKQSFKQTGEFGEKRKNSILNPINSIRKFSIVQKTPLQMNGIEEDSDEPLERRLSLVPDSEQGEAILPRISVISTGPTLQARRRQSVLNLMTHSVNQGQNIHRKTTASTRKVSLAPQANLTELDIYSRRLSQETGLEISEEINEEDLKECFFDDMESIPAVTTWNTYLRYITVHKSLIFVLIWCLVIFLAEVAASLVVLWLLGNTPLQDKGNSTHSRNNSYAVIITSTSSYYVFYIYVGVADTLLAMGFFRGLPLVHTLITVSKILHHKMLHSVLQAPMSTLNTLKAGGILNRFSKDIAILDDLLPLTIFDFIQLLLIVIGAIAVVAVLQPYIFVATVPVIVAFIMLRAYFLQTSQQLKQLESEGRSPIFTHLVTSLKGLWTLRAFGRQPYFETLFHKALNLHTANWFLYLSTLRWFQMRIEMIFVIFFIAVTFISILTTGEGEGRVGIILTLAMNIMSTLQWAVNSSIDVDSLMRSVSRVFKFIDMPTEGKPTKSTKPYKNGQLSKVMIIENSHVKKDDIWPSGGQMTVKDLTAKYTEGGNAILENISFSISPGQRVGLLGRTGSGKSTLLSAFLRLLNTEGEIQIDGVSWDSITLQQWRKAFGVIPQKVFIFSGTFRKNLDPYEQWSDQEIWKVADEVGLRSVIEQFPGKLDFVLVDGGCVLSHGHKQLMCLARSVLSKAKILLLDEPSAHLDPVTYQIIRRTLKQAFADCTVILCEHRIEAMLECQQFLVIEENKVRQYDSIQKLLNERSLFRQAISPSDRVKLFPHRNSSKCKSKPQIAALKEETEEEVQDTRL

As usually defined, the pEC50 is the negative decadic logarithm of the EC50, by convention in mol/L. On to `Nc1ccc([N+](=O)[O-])cc1-c1nc2cc(Cl)ccc2n(Cc2ccccc2)c1=O` [CFTRact-J135, 3-(2-Amino-5-nitrophenyl)-1-benzyl-6-chloroquinoxalin-2(1H)-one], for which the pEC50 was ~6.52 in test [1] (EC50 for CFTR activation, FRT cells, wild-type CFTR, short-circuit current) and 6.96 in test [2]. In addition, in test [1] (forskolin produced little or no further increase in current), the “extent of CFTR activation (Isc)” value is “fully activated CFTR”.
Consider `CCn1c(=O)c(-c2cccc([N+](=O)[O-])c2)nc2ccccc21` [Compound 3c, 1-Ethyl-3-(3-nitrophenyl)quinoxalin-2(1H)-one], for which the pEC50 in test [2] (setting [5]) is 7.19.
Take `Cn1c(=O)c(-c2cc([N+](=O)[O-])ccc2N)nc2ccccc21` [CFTRact-J052]: in test [2], the “CFTR activity of commercial analogs relative to CFTRact-J027” value is on record as “greatly reduced activity”.
On to `N#Cc1ccccc1Cn1c(=O)c(-c2cc(I)ccc2N)nc2ccccc21` [CFTRact-J144, 3-(2-Amino-5-iodophenyl)-1-(2-cyanobenzyl)quinoxalin-2(1H)-one], for which the pEC50 in test [2] was < 4.60.
Still for that read-out and setting: the figure for `Nc1ccc([N+](=O)[O-])cc1-c1nc2ccccc2n(Cc2ccc(Br)cc2)c1=O` [CFTRact-J102, 3-(2-Amino-5-nitrophenyl)-1-(4-bromobenzyl)quinoxalin-2(1H)-one] is < 4.60; for `Nc1cccc(Br)c1-c1nc2ccccc2n(Cc2ccccc2)c1=O` [CFTRact-J142, 3-(2-Amino-6-bromophenyl)-1-benzylquinoxalin-2(1H)-one] it is 5.82.
Turning to cholera toxin [reference compound], the “tear fluid secretion after single topical dose” value in test [3] (mouse, in vivo) is “substantially increased basal tear secretion at 30 min, but these effects were transient and undetectable after 2 hours”.
In test [2], `Nc1ccc([N+](=O)[O-])cc1-c1nc2ccccc2n(Cc2ccccc2Br)c1=O` [CFTRact-J104, 3-(2-Amino-5-nitrophenyl)-1-(2-bromobenzyl)quinoxalin-2(1H)-one] had a pEC50 of 5.14.
`O=c1c(-c2ccccc2[N+](=O)[O-])nc2ccccc2n1Cc1ccccc1` [Compound 1d, 1-Benzyl-3-(2-nitrophenyl)quinoxalin-2(1H)-one]: the pEC50 in test [2] (setting [6]) is 6.00.
Take `O=c1c(-c2cccc([N+](=O)[O-])c2)nc2ccccc2n1Cc1ccco1` [Compound 3i, 1-(Furan-2-ylmethyl)-3-(3-nitrophenyl)quinoxalin-2(1H)-one]: in test [2] (setting [5]), the pEC50 is 7.70.
As to `Fc1ccc2nc3n(Cc4ccccc4)c4ccc(C(F)(F)F)cc4nc-3c2c1` [Compound 22], the pEC50 in test [2] was < 5.00.
For the molecule `CC(C)Cn1c(=O)n(C)c(=O)c2[nH]cnc21` [IBMX, 3-isobutyl-1-methylxanthine, reference compound], in test [3] (wild-type mice, B074 100 μM, J027 and K089 50 μM, VX-770 10 μM, cholera toxin 0.1 μg/mL, forskolin 20 μM, IBMX 250 μM), the “tear fluid secretion after single topical dose” value is “substantially increased basal tear secretion at 30 min, but these effects were transient and undetectable after 2 hours”.
In the case of `CC(=O)Nc1ccccc1-c1nc2ccccc2n(Cc2cccc(Br)c2)c1=O` [CFTRact-J059], the pEC50 in test [2] is ~4.72.
Still for that read-out and setting: as for `Nc1ccc([N+](=O)[O-])cc1-c1nc2cccc3c2n(c1=O)C(c1ccccc1)CO3` (stereo not shown) [Compound 20, 6-(2-Amino-5-nitrophenyl)-3-phenyl-2,3-dihydro-5H-[1,4]oxazino[4,3,2-de]quinoxalin-5-one], the figure is < 5.00.
On to `O=c1c(-c2cc(Br)ccc2NCc2ccccc2)nc2ccccc2n1Cc1ccccc1` [CFTRact-J056], for which, in test [2], the “CFTR activity of commercial analogs relative to CFTRact-J027” value is “greatly reduced activity” and the pEC50 was ~4.82.
As to `O=c1c(-c2cccc([N+](=O)[O-])c2)nc2c(Cl)cccc2n1Cc1ccccc1` [Compound 2c, 1-Benzyl-5-chloro-3-(3-nitrophenyl)quinoxalin-2(1H)-one], in test [2] (setting [7]), the pEC50 is 6.96.
`C=CCn1c(=O)c(-c2cccc([N+](=O)[O-])c2)nc2ccccc21` [Compound 3e, 1-Allyl-3-(3-nitrophenyl)quinoxalin-2(1H)-one]: the pEC50 in test [2] (setting [5]) was 7.26.
As for `Cn1c(=O)c(-c2cc([N+](=O)[O-])ccc2N)nc2ccccc21` [inactive chemical analog of CFTRact-J027, reference compound], the “efficacy on stool parameters of inactive analog” value in test [4] was “nor was an inactive chemical analog of CFTRact-J027 effective in wildtype mice”.
On to `Nc1ccc(C(=O)O)cc1-c1nc2ccccc2n(Cc2ccccc2)c1=O` [Compound 1k, 4-Amino-3-(4-benzyl-3-oxo-3,4-dihydroquinoxalin-2-yl)benzoic acid], for which, in test [2], the pEC50 is < 5.00.
`O=c1c(-c2cccc([N+](=O)[O-])c2)nc2ccccc2n1Cc1ccccn1` [Compound 3h, 3-(3-Nitrophenyl)-1-(pyridin-2-ylmethyl)quinoxalin-2(1H)-one]: in test [2] (setting [5]), the pEC50 is 7.28.
Same read-out and setting: the figure for `CCCn1c(=O)c(-c2cccc([N+](=O)[O-])c2)nc2ccccc21` [Compound 3d, 1-Propyl-3-(3-nitrophenyl)quinoxalin-2(1H)-one] is 6.75.
In the case of `CC(=O)Nc1ccc(C)cc1-c1nc2ccccc2n(Cc2ccccc2)c1=O` [CFTRact-J060], in test [2], the pEC50 is < 4.60.
In the case of `O=c1c(-c2cccc(Br)c2)nc2ccccc2n1Cc1ccccc1` [Compound 1g, 1-Benzyl-3-(3-bromophenyl)quinoxalin-2(1H)-one], in test [2] (setting [6]), the pEC50 is 6.48.
Regarding `O=c1c(-c2ccc3nonc3c2)nc2ccccc2n1Cc1ccccc1` [Compound 1m, 3-(Benzo[c][1,2,5]oxadiazol-5-yl)-1-benzylquinoxalin-2(1H)-one], in test [2] (setting [6]), the pEC50 is 7.74.
With `O=c1[nH]c2ccccc2nc1-c1cccc([N+](=O)[O-])c1` [Compound 3a, 3-(3-Nitrophenyl)quinoxalin-2(1H)-one], the pEC50 in test [2] was < 5.00.
The same measure, in the same setting: the figure for `Cc1ccc2c(c1)nc(-c1cc(I)ccc1N)c(=O)n2Cc1ccccc1` [CFTRact-J141, 3-(2-Amino-5-iodophenyl)-1-benzyl-6-methylquinoxalin-2(1H)-one] is 6.33.
As for `Cc1ccc2c(c1)nc(-c1c(N)cccc1Br)c(=O)n2Cc1ccccc1` [CFTRact-J139, 3-(2-Amino-6-bromophenyl)-1-benzyl-6-methylquinoxalin-2(1H)-one], the pEC50 in test [2] is 6.19.
The same measure, in the same setting: the figure for `Cc1cccc2nc(-c3cccc([N+](=O)[O-])c3)c(=O)n(Cc3ccccc3)c12` [Compound 2h, 1-Benzyl-8-methyl-3-(3-nitrophenyl)quinoxalin-2(1H)-one] is < 5.00; for `O=C(O)c1ccc([N+](=O)[O-])c(-c2nc3ccccc3n(Cc3ccccc3)c2=O)c1` [Compound 1b, 3-(4-Benzyl-3-oxo-3,4-dihydroquinoxalin-2-yl)-4-nitrobenzoic acid] it is < 5.00.
In the case of `O=c1c(-c2cccc([N+](=O)[O-])c2)nc2ccc(Br)cc2n1Cc1ccccc1` [Compound 2e, 1-Benzyl-7-bromo-3-(3-nitrophenyl)quinoxalin-2(1H)-one], in test [2] (plate reader assay), the “EC50, variation in the quinoxalinone core” value is on record as “EC50 = Inactive”.
`O=c1c(-c2cccc([N+](=O)[O-])c2)nc2cc(F)c(F)cc2n1Cc1ccccc1` [Compound 2g, 1-Benzyl-6,7-difluoro-3-(3-nitrophenyl)quinoxalin-2(1H)-one]: in test [2], the negative logarithm of the EC50 (pEC50) was < 5.00.
As for `O=c1c(-c2ccccc2)nc2ccccc2n1Cc1ccccc1` [Compound 1h, 1-Benzyl-3-phenylquinoxalin-2(1H)-one], the pEC50 in test [2] (setting [6]) is 5.30.
On to `O=c1c(-c2cccc([N+](=O)[O-])c2)nc2ccccc2n1Cc1ccc2ccccc2c1` [Compound 3g, 1-(Naphthalen-2-ylmethyl)-3-(3-nitrophenyl)quinoxalin-2(1H)-one], for which the pEC50 in test [2] (setting [5]) was 5.37.
In the case of `O=c1c(-c2cccc([N+](=O)[O-])c2)nc2ccc(Cl)cc2n1Cc1ccccc1` [Compound 2a, 1-Benzyl-7-chloro-3-(3-nitrophenyl)quinoxalin-2(1H)-one], in test [2] (setting [7]), the pEC50 was 6.12.
As to `Cc1cc2nc(-c3cccc([N+](=O)[O-])c3)c(=O)n(Cc3ccccc3)c2cc1C` [Compound 2i, 1-Benzyl-6,7-dimethyl-3-(3-nitrophenyl)quinoxalin-2(1H)-one], the pEC50 in test [2] was < 5.00.
With `O=c1c(-c2cccc([N+](=O)[O-])c2)nc2cc(Br)ccc2n1Cc1ccccc1` [Compound 2f, 1-Benzyl-6-bromo-3-(3-nitrophenyl)quinoxalin-2(1H)-one], the pEC50 in test [2] (setting [7]) was 7.20.
Still for that read-out and setting: the figure for `O=c1c(-c2cccc([N+](=O)[O-])c2)nc2cc(Cl)ccc2n1Cc1ccccc1` [Compound 2b, 1-Benzyl-6-chloro-3-(3-nitrophenyl)quinoxalin-2(1H)-one] is 7.15.

The record behind these values is patent publication US11084795B2, “CFTR regulators and methods of use thereof” (The Regents of the University of California, priority 2015, dated 2021).
